Test results published in patent US10669283B2, “Compound and pharmacologically acceptable salt thereof” (MEIJI SEIKA PHARMA CO., LTD., priority 2016, dated 2020).
Where two headings read alike, the source gives them in different places.

Key:
[1] = Hepatic metabolic stability (rat liver microsome method); assay type: in vitro ADME; details: rat liver microsomes 0.5 mg/mL, test substance 1 μM, NADPH 1 mM, 37° C., 30 minutes
Outline: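 Test compound (1 μM) preincubated with rat liver microsomes (0.5 mg/mL) in 100 mM potassium phosphate pH 7.4 at 37° C; NADPH (1 mM) started reaction, acetonitrile stopped it at 0 and 30 min. LC-MS quantitation; % remaining = 30-min/0-min ×100, graded A ≥75%, B 60–<75%, C 45–<60%, D <45%.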

PDE4 = PDE4 inhibition, scintillation proximity assay (SPA); assay type: biochemical;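 on PDE4 Inhibitory Activity (concentration for the inhibition rate of 50%): A below 100 nM B 100 to below 1000 nM C 1000 nM or more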
Outline: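 Scintillation proximity read-out: [2,8-3H]-cAMP hydrolysis by PDE4 ran 120 min at room temperature in Tris-HCl pH 7.4 buffer with 8.3 mM MgCl2, 1.7 mM EGTA and 3 mg/mL BSA. Bead-bound product (YSi-SPA with ZnSO4, 15 min) counted; blank lacks enzyme, control has DMSO only.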

[2] = scintillation proximity assay (SPA), evaluated as classes A, B, C, read-out: PDE4 Inhibitory Activity (concentration for the inhibition rate of 50%)
[3] = scintillation proximity assay, class symbols, read-out: PDE4 Inhibitory Activity

With `CC(O)C(F)(F)Oc1ccc(-c2nccs2)c2oc(N3CC4CC(C3)N4)nc12` (single isomer, unassigned) [Example 251, 1-((2-(3,6-Diazabicyclo[3.1.1]heptan-3-yl)-7-(thiazol-2-yl)benzo[d]oxazol-4-yl)oxy)-1,1-difluoropropan-2-ol] the “Residual ratio (% remaining for 30-minute reaction)” value [1] was “A (a % remaining rate of 75% or more)” and the IC50 (PDE4; [2]) was under 100 nM.

In the case of `NC(=O)C(F)(F)Oc1ccc(-c2nccs2)c2oc(N3CC4CC(C3)N4)nc12` [Example 410, 2-((2-(3,6-diazabicyclo [3.1.1]heptan-3-yl)-7-(thiazol-2-yl)benzo[d]oxazol-4-yl)oxy)-2,2-difluoro-acetamide], the “Residual ratio (% remaining for 30-minute reaction)” value [1] is reported as “A (a % remaining rate of 75% or more)” and the IC50 (PDE4; [3]) is reported as under 100 nM.

In the case of `OCCSc1ccc(-c2nccs2)c2oc(N3CC4CC(C3)N4)nc12` [Example 348, 2-((2-(3,6-diazabicyclo[3.1.1]heptan-3-yl)-7-(thiazol-2-yl)benzo [d]oxazol-4-yl)thio) ethan-1-ol], the “Residual ratio (% remaining for 30-minute reaction)” value [1] is reported as “B (60% or more and less than 75%)” and the IC50 (PDE4; [3]) is reported as under 100 nM.

In the case of `FC(F)(F)c1ccc(Oc2cc(-c3nccs3)c3oc(N4CC5CC(C4)N5)nc3c2)nc1` [Example 413, 2-(3,6-diazabicyclo [3.1.1]heptan-3-yl)-7-(thiazol-2-yl)-5-((5-(trifluoro-methyl)pyridin-2-yl)oxy) benzo[d] oxazole], the “Residual ratio (% remaining for 30-minute reaction)” value [1] is reported as “A (a % remaining rate of 75% or more)” and the IC50 (PDE4; [3]) is reported as under 100 nM.

With `FC(F)(F)C(OCc1nnn[nH]1)c1ccc(-c2nccs2)c2oc(N3CC4CCC(C3)N4)nc12` (centres unmarked) [Example 230, 4-(1-((1H-tetrazol-5-yl)methoxy)-2,2,2-trifluoroethyl)-2-(3,8-diazabicyclo[3.2.1]octan-3-yl)-7-(thiazol-2-yl)benzo[d]oxazole] the “Residual ratio (% remaining for 30-minute reaction)” value [1] was “A (a % remaining rate of 75% or more)” and the IC50 (PDE4; [2]) was under 100 nM.

For `CC(C)(O)C(F)(F)Oc1ccc(-c2ccc(F)cn2)c2oc(N3CC4CCC(C3)N4)nc12` [Example 332, 1-((2-(3,8-diazabicyclo [3.2.1]octan-3-yl)-7-(5-fluoropyridin-2-yl)benzo[d]oxazol-4-yl)oxy)-1,1-difluoro-2-methylpropan-2-ol], the “Residual ratio (% remaining for 30-minute reaction)” value [1] was “A (a % remaining rate of 75% or more)” and the IC50 (PDE4; [3]) was under 100 nM.

With `CC(C)(O)C(F)(F)Oc1c(Cl)cc(-c2nccs2)c2oc(N3CC4CC(C3)N4)nc12` [Example 400, 1-((2-(3,6-diazabicyclo [3.1.1]heptan-3-yl)-5-chloro-7-(thiazol-2-yl)benzo[d]oxazol-4-yl)oxy)-1,1-difluoro-2-methylpropan-2-ol] the “Residual ratio (% remaining for 30-minute reaction)” value [1] was “B (60% or more and less than 75%)” and the IC50 (PDE4; [3]) was under 100 nM.

In the case of `[O-][S+](CCO)c1ccc(-c2nccs2)c2oc(N3CC4CC(C3)N4)nc12` (centres unmarked) [Example 349, 2-((2-(3,6-diazabicyclo[3.1.1]heptan-3-yl)-7-(thiazol-2-yl)benzo [d]oxazol-4-yl)sulfinyl)ethan-1-ol], the “Residual ratio (% remaining for 30-minute reaction)” value [1] is reported as “A (a % remaining rate of 75% or more)” and the IC50 (PDE4; [3]) is reported as under 100 nM.

For `O=C(c1ccc(-c2nccs2)c2oc(N3CC4CC(C3)N4)nc12)N1CCCC1` [Example 360, (2-(3,6-diazabicyclo [3.1.1]heptan-3-yl)-7-(thiazol-2-yl)benzo[d]oxazole-4-yl)(pyrrolidin-1-yl)methanone], the “Residual ratio (% remaining for 30-minute reaction)” value [1] was “A (a % remaining rate of 75% or more)” and the IC50 (PDE4; [3]) was 100 to 1000 nM.

In the case of `CC(C)(O)C(F)(F)Oc1ccc(-c2ncns2)c2oc(N3CC4CCC(C3)N4)nc12` [Example 327, 1-((2-(3,8-Diazabicyclo[3.2.1]octan-3-yl)-7-(1,2,4-thiadiazol-5-yl)benzo[d]oxazol-4-yl)oxy)-1,1-difluoro-2-methylpropan-2-ol], the “Residual ratio (% remaining for 30-minute reaction)” value [1] is reported as “B (60% or more and less than 75%)” and the IC50 (PDE4; [3]) is reported as under 100 nM.

In the case of `COCCNC(=O)c1ccc(-c2nccs2)c2oc(N3CC4CC(C3)N4)nc12` [Example 353, 2-(3,6-diazabicyclo [3.1.1]heptan-3-yl)-N-(2-methoxyethyl)-7-(thiazol-2-yl) benzo[d] oxazole-4-carboxamide], the “Residual ratio (% remaining for 30-minute reaction)” value [1] is reported as “A (a % remaining rate of 75% or more)” and the IC50 (PDE4; [3]) is reported as under 100 nM.

In the case of `CN(CCO)C(=O)c1ccc(-c2nccs2)c2oc(N3CC4CC(C3)N4)nc12` [Example 356, 2-(3,6-diazabicyclo [3.1.1]heptan-3-yl)-N-(2-hydroxyethyl)-N-methyl-7-(thiazol-2-yl)benzo[d] oxazole-4-carboxamide], the “Residual ratio (% remaining for 30-minute reaction)” value [1] is reported as “A (a % remaining rate of 75% or more)” and the IC50 (PDE4; [3]) is reported as 100 to 1000 nM.

For `CC(C)(O)C(F)(F)Oc1ccc(-n2cccn2)c2oc(N3CC4CC(C3)N4)nc12` [Example 304, 1-((2-(3,6-Diazabicyclo[3.1.1]heptan-3-yl)-7-(1H-pyrazol-1-yl)benzo[d]oxazol-4-yl)oxy)-1,1-difluoro-2-methylpropan-2-ol], the “Residual ratio (% remaining for 30-minute reaction)” value [1] was “A (a % remaining rate of 75% or more)” and the IC50 (PDE4; [2]) was under 100 nM.

In the case of `c1ccc(Oc2ccc(-c3nccs3)c3oc(N4CC5CC(C4)N5)nc23)nc1` [Example 337, 2-(3,6-diazabicyclo [3.1.1]heptan-3-yl)-4-(pyridin-2-yloxy)-7-(thiazol-2-yl)benzo[d] oxazole], the “Residual ratio (% remaining for 30-minute reaction)” value [1] is reported as “B (60% or more and less than 75%)” and the IC50 (PDE4; [3]) is reported as under 100 nM.

In the case of `c1csc(-c2ccc(O[C@@H]3CCOC3)c3nc(N4CC5CC(C4)N5)oc23)n1` [Example 324, 2-(3,6-Diazabicyclo[3.1.1]heptan-3-yl)-4-(((R)-tetrahydrofuran-3-yl)oxy)-7-(thiazol-2-yl)benzo[d]oxazole], the “Residual ratio (% remaining for 30-minute reaction)” value [1] is reported as “A (a % remaining rate of 75% or more)” and the IC50 (PDE4; [2]) is reported as under 100 nM.

With `O=C(N1CC(O)C1)C(F)(F)Oc1ccc(-c2nccs2)c2oc(N3CC4CC(C3)N4)nc12` [Example 412, 2-((2-(3,6-diazabicyclo [3.1.1]heptan-3-yl)-7-(thiazol-2-yl)benzo[d]oxazol-4-yl)oxy)-2,2-difluoro-1-(3-hydroxy-azetidin-1-yl)ethan-1-one] the “Residual ratio (% remaining for 30-minute reaction)” value [1] was “A (a % remaining rate of 75% or more)” and the IC50 (PDE4; [3]) was under 100 nM.

In the case of `c1cc(-c2nccs2)c2oc(N3CC4CC(C3)N4)nc2c1` [Example 382, 2-(3,6-diaza-bicyclo[3.1.1]heptan-3-yl)-7-(thiazol-2-yl) benzo[d]oxazole], the “Residual ratio (% remaining for 30-minute reaction)” value [1] is reported as “B (60% or more and less than 75%)” and the IC50 (PDE4; [3]) is reported as under 100 nM.

With `O=C(NCCO)c1ccc(-c2nccs2)c2oc(N3CC4CC(C3)N4)nc12` [Example 355, 2-(3,6-diazabicyclo [3.1.1]heptan-3-yl)-N-(2-hydroxyethyl)-7-(thiazol-2-yl) benzo[d] oxazole-4-carboxamide] the “Residual ratio (% remaining for 30-minute reaction)” value [1] was “A (a % remaining rate of 75% or more)” and the IC50 (PDE4; [3]) was under 100 nM.

In the case of `c1csc(-c2ccc(O[C@H]3CCOC3)c3nc(N4CC5CC(C4)N5)oc23)n1` [Example 323, 2-(3,6-Diazabicyclo[3.1.1]heptan-3-yl)-4-(((S)-tetrahydrofuran-3-yl)oxy)-7-(thiazol-2-yl)benzo[d]oxazole], the “Residual ratio (% remaining for 30-minute reaction)” value [1] is reported as “B (60% or more and less than 75%)” and the IC50 (PDE4; [2]) is reported as under 100 nM.
